Experimental data reported in PubChem BioAssay (NCI).
Values joined by “and” are separate entries in the source; they are usually repeats but may differ in a detail not shown here. Equal entries are not always repeated.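 Cultured in 96-well plates, cells were exposed to test compound for 48 hours across five concentrations. GI50: concentration for 50% inhibition of growth. TGI denotes the concentration required for complete inhibition of growth.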

What was measured:
Assay in all cases: growth of human tumour cells (NCI), 48 h
SF-268 CNS = test system: SF-268 CNS
TK-10 renal = test system: TK-10 renal
OVCAR-8 ovarian = test system: OVCAR-8 ovarian
NCI-H23 lung = test system: NCI-H23 lung
DMS 114 small cell lung = test system: DMS 114 small cell lung
COLO 205 colon = test system: COLO 205 colon
HL-60(TB) leukemia = test system: HL-60(TB) leukemia
XF 498 CNS = test system: XF 498 CNS
T-47D breast = test system: T-47D breast
DU-145 prostate = test system: DU-145 prostate

Compound	TGI (SF-268 CNS)	TGI (TK-10 renal) [µM]	TGI (OVCAR-8 ovarian) [µM]	TGI (NCI-H23 lung)	TGI (DMS 114 small cell lung) [µM]	TGI (COLO 205 colon) [µM]	TGI (HL-60(TB) leukemia) [µM]	TGI (XF 498 CNS) [µM]	GI50 (T-47D breast) [µM]	TGI (T-47D breast) [µM]	GI50 (SF-268 CNS) [µM]	GI50 (TK-10 renal) [µM]	GI50 (OVCAR-8 ovarian)	GI50 (NCI-H23 lung)	GI50 (HL-60(TB) leukemia) [µM]	GI50 (COLO 205 colon) [µM]	GI50 (DU-145 prostate)	TGI (DU-145 prostate) [µM]
COc1cc([C@@H]2OC(=O)C3C2C(=O)O[C@H]3c2ccc(O)c(OC)c2)ccc1O (some centres not stated)	> 100 µM	> 100	> 100	> 100 µM	> 100	> 100	–	–	–	–	–	–	–	–	–	–	–	–
O=C1NC2C3CC(OCc4ccccc4)(OCc4ccccc4)C2OC3O1 (configuration not stated)	> 50 µM	–	–	> 50 µM	> 50	> 50	> 50	> 50	–	–	–	–	–	–	–	–	–	–
O=C1C(Cl)=C(Nc2cc(Cl)ccc2O)C(=O)N1Cc1ccccc1	35 µM	42.9	36.4	31.5 µM	–	44.3	67.1	–	27.6	> 100	17.5	21.4	17.5 µM	16.6 µM	25.6	18.3	18 µM	33.5
c1cc(C2CCCCC2)ccc1-c1cnc2nonc2n1	9.29 µM	2.79	> 19.8	4.02 µM	–	6.39	1.52	–	0.631	2.78	2.13	1.28	1.38 µM	1.37 µM	0.318	1.99	1.35 µM	3.02
CC(C)c1[nH]nc2c(NCc3ccc(-c4ccccn4)cc3)nc(SCCN)nc12	7.12 µM and 5.24 µM	10.1	12.9	0.797 µM and 0.0951 µM	–	0.0342	0.0443	–	0.0182	0.089	0.00684	0.155	0.0387 µM and 0.0243 µM	0.0212 µM and 0.0181 µM	0.00469	–	0.0389 µM and 0.0416 µM	11.8
CC(C)(O)CCc1cccc(C(=O)c2cnn(-c3ccc(F)cc3)c2N)c1	> 25 µM	> 25	> 25	> 25 µM	–	> 25	> 25	–	8.17	> 25	> 25	> 25	> 25 µM	> 25 µM	> 25	> 25	> 25 µM	> 25
CSc1nnc(-c2cc3c([nH]c4ccccc43)c(-c3cccc(O)c3)n2)n1-c1ccc(C)cc1	48.1 µM	9.64	45.2	> 100 µM	–	43.6	> 100	–	1.95	8.16	3.83	3.01	4.25 µM	5.76 µM	3.02	4.49	4.57 µM	77.6
O=C(NCc1ccco1)C1CCN(S(=O)(=O)c2ccc(Cl)cc2)CC1	> 100 µM	> 100	> 100	> 100 µM	–	> 100	> 100	–	> 100	> 100	> 100	> 100	> 100 µM	> 100 µM	> 100	> 100	> 100 µM	> 100
NC(Cc1cccnn1)C(=O)O (configuration not stated)	> 100 µM	> 100	> 100	> 100 µM	–	> 100	> 100	–	–	> 100	–	–	–	–	–	–	–	> 100
O=C1CC(Cc2n[nH]c3c2CCCC3)CC(=O)N1	> 100 µM	> 100	> 100	> 100 µM	–	> 100	> 100	–	–	> 100	–	–	–	–	–	–	–	> 100
COc1ccc(/C=C2\COc3ccc(O)c(O)c3C2=O)cc1OC	5.64 µM	27.6	15.7	5.56 µM	–	6.18	5.29	–	1.54	9.6	1.7	2.66	1.68 µM	1.89 µM	0.44	2.17	2.22 µM	11.4
Cc1cc2c3c([n+](C)c4ccc(F)cc4c3c1)-c1cc(F)ccc1N2C	14.8 µM	> 100	> 100	68.6 µM	–	16.3	> 100	–	2.85	84	2.42	51.8	15.2 µM	9.46 µM	25.4	3.5	17.9 µM	> 100
COC(=O)c1c2c(c(C)[n+]([O-])c1C)C(=O)C(NCc1ccc(F)cc1)=CC2=O	9.08 µM	36.7	7.78	3.79 µM	–	1.36	3.6	–	1.72	4.23	2.51	3.32	1.59 µM	1.33 µM	0.745	0.376	2.11 µM	4.76
CC(C)(C)C(=O)c1c(C(F)(F)F)n([O-])c2cc(Cl)c(Cl)cc2[n+]1=O	0.902 µM	2.26	1.51	2.3 µM	–	1.69	0.446	–	0.613	1.29	0.457	0.842	0.502 µM	0.849 µM	0.188	0.683	0.353 µM	0.803
O=C(N=Nc1c(Cl)c(O)c2ccccc2c1O)C(=O)Nc1cccc(C(F)(F)F)c1	13 µM	27.4	13.6	10.2 µM	–	24.6	10.2	–	4.92	41.3	3.37	14.2	3.39 µM	2.67 µM	3.35	10.9	2.73 µM	5.15
COc1c(-c2ccc3c(c2)OCO3)oc2cc(O)cc(O)c2c1=O	> 100 µM	> 100	> 100	> 100 µM	–	> 100	> 100	–	–	64.7	–	–	–	–	–	–	–	> 100
COc1cc2c3cc1Oc1c(OC)c(OC)cc4c1[C@@H](Cc1ccc(O)c(c1)Oc1ccc(cc1)C[C@@H]3N(C)CC2)N(C)CC4	45.6 µM	35.4	31.7	61.3 µM	–	–	26.4	23.8	–	–	–	–	–	–	–	–	–	–
